# Assay results published in patent US20230125585A1, “DOSING PROTOCOLS AND REGIMENS FOR AMINOSTEROL TREATMENT” (Enterin, Inc., priority 2019, published 2023).
# Read-outs that look alike come from different tables or passages of the source.
# Key:
# [1] = short term placebo controlled trial, PD constipation; cited from earlier work
# α-synuclein protein = α-synuclein protein (Homo sapiens, UniProt P37840); conditions: cited from earlier work
# mouse stomach mRNA = assay: Oral dosing of squalamine (ENT-01) in old mice, stomach transcriptome by RNAseq; assay type: in vivo
# From the text: The present example evaluated the impact of oral dosing of squalamine (ENT-01) on the gastrointestinal (GI) tissue of old mice (78 weeks). […] After 2 weeks of dosing the animals were euthanized, and the GI tracts sectioned into stomach, duodenum, jejunum, ileum, caecum, colon, and rectum. The stomach tissues were then sent for histology, and the transcriptomes analyzed by RNAseq.
# The dosing schedule used to determine the effect of orally administered squalamine and MSI-1436 on the GI tracts of young and old mice was as follows. Male C57Bl/6 mice, aged 20 and 78 weeks, were obtained from Jackson labs. Animals were exposed to 12 hr light dark cycles and provided Teklad standard mouse diet and water ad lib.
# Animals were dosed once daily by oral gavage in the morning for a total of 14 days. Animals were fasted 3-4 hours prior to dosing and 1 hour following. The test article was dissolved in 0.5% hydroxypropylcellulose in water. On day 15 the animals were euthanized by CO2 asphyxiation, necropsied, and tissues prepared for histology and RNAseq analysis.
# The GI tracts of the animals were sectioned into stomach, duodenum, jejunum, ileum, caecum, colon, and rectum. The tissues were then sent for histology, and the transcriptomes analyzed by RNAseq.
# [2] = Absorption / oral bioavailability of aminosterols; assay type: in vivo; conditions: oral administration
# [3] = Phase 2a (n = 34), drug related adverse events; assay type: in vivo, human
# [4] = human, in vivo, 25 days
# [5] = orally administered; mice with constipation due to overexpression of human αS; cited from earlier work
# [6] = intravenous administration; cited from earlier work
# [7] = Phase 2(b) study, aminosterol dosage and body position, Parkinson's disease patients
# [8] = 15 patients with assessable MMSE improvement
structure (smiles),measurement,setting,value
CCCCC(F)(F)[C@@]1(O)CC[C@H]2[C@@H](CC(=O)[C@@H]2CCCCCCC(=O)O)O1 [Lubiprostone],share of treated in whom effective,[1],about 50%
CC(C)[C@@H](CC[C@@H](C)[C@H]1CC[C@H]2[C@@H]3[C@H](O)C[C@H]4C[C@@H](NCCCNCCCCNCCCN)CC[C@]4(C)[C@H]3CC[C@]12C)OS(=O)(=O)O [aminosterol 1436],initiation of aggregation of the α-synuclein protein,α-synuclein protein,inhibit the initiation of aggregation
CC(C)[C@@H](CC[C@@H](C)[C@H]1CC[C@H]2[C@@H]3[C@H](O)C[C@H]4C[C@@H](NCCCNCCCCN)CC[C@]4(C)[C@H]3CC[C@]12C)OS(=O)(=O)O [squalamine],Corneodesmosin mRNA % increase,mouse stomach mRNA; old + Ent-01 vs old mice,94%
same,Cornifelin mRNA % increase,mouse stomach mRNA; old + Ent-01 vs old mice,261%
same,Dermokine mRNA % increase,mouse stomach mRNA; old + Ent-01 vs old mice,290%
same,Filaggrin mRNA % increase,mouse stomach mRNA; old + Ent-01 vs old mice,671%
same,H19_imprinted_maternally_expressed_transcript mRNA % increase,mouse stomach mRNA; old + Ent-01 vs old mice,656%
same,Hornerin mRNA % increase,mouse stomach mRNA; old + Ent-01 vs old mice,253%
same,Loricrin mRNA % increase,mouse stomach mRNA; old + Ent-01 vs old mice,381%
same,Myoglobin mRNA % increase,mouse stomach mRNA; old + Ent-01 vs old mice,437%
same,Sciellin mRNA % increase,mouse stomach mRNA; old + Ent-01 vs old mice,219%
same,caspase_14 mRNA % increase,mouse stomach mRNA; old + Ent-01 vs old mice,664%
same,collagen_type_XVII_alpha_1 mRNA % increase,mouse stomach mRNA; old + Ent-01 vs old mice,256%
same,cystatin_E/M mRNA % increase,mouse stomach mRNA; old + Ent-01 vs old mice,491%
same,desmocollin_1 mRNA % increase,mouse stomach mRNA; old + Ent-01 vs old mice,104%
same,desmoglein_1_beta mRNA % increase,mouse stomach mRNA; old + Ent-01 vs old mice,184%
same,gap_junction_protein_beta_4 mRNA % increase,mouse stomach mRNA; old + Ent-01 vs old mice,470%
same,gap_junction_protein_beta_6 mRNA % increase,mouse stomach mRNA; old + Ent-01 vs old mice,455%
same,kallikrein_related-peptidase_7_(chymotryptic_stratum mRNA % increase),mouse stomach mRNA; old + Ent-01 vs old mice,847%
same,keratin_1 mRNA % increase,mouse stomach mRNA; old + Ent-01 vs old mice,425%
same,keratin_10 mRNA % increase,mouse stomach mRNA; old + Ent-01 vs old mice,610%
same,keratinocyte_differentiation_associated_protein mRNA % increase,mouse stomach mRNA; old + Ent-01 vs old mice,407%
same,keratinocyte_expressed_proline-rich mRNA % increase,mouse stomach mRNA; old + Ent-01 vs old mice,270%
same,late_cornified_envelope_1A1 mRNA % increase,mouse stomach mRNA; old + Ent-01 vs old mice,339%
same,late_cornified_envelope_1A2 mRNA % increase,mouse stomach mRNA; old + Ent-01 vs old mice,361%
same,late_cornified_envelope_1B mRNA % increase,mouse stomach mRNA; old + Ent-01 vs old mice,471%
same,late_cornified_envelope_1C mRNA % increase,mouse stomach mRNA; old + Ent-01 vs old mice,338%
same,late_cornified_envelope_1E mRNA % increase,mouse stomach mRNA; old + Ent-01 vs old mice,340%
same,late_cornified_envelope_1F mRNA % increase,mouse stomach mRNA; old + Ent-01 vs old mice,338%
same,late_cornified_envelope_1G mRNA % increase,mouse stomach mRNA; old + Ent-01 vs old mice,197%
same,late_cornified_envelope_1H mRNA % increase,mouse stomach mRNA; old + Ent-01 vs old mice,233%
same,late_cornified_envelope_1I mRNA % increase,mouse stomach mRNA; old + Ent-01 vs old mice,654%
same,late_cornified_envelope_1J mRNA % increase,mouse stomach mRNA; old + Ent-01 vs old mice,296%
same,late_cornified_envelope_1L mRNA % increase,mouse stomach mRNA; old + Ent-01 vs old mice,365%
same,late_cornified_envelope_1M mRNA % increase,mouse stomach mRNA; old + Ent-01 vs old mice,656%
same,late_cornified_envelope_3C mRNA % increase,mouse stomach mRNA; old + Ent-01 vs old mice,130%
same,late_cornified_envelope_3E mRNA % increase,mouse stomach mRNA; old + Ent-01 vs old mice,205%
same,late_cornified_envelope_3F mRNA % increase,mouse stomach mRNA; old + Ent-01 vs old mice,192%
same,lectin_galactose_binding_soluble_7 mRNA % increase,mouse stomach mRNA; old + Ent-01 vs old mice,481%
same,myosin_binding_protein_C_slow-type mRNA % increase,mouse stomach mRNA; old + Ent-01 vs old mice,209%
same,myosin_heavy_polypeptide_1_skeletal_muscle mRNA % increase,mouse stomach mRNA; old + Ent-01 vs old mice,289%
same,myosin_heavy_polypeptide_8_skeletal_muscle mRNA % increase,mouse stomach mRNA; old + Ent-01 vs old mice,371%
same,myosin_light_chain_phosphorylatable_fast_skeletal mRNA % increase,mouse stomach mRNA; old + Ent-01 vs old mice,295%
same,myosin_light_polypeptide_3 mRNA % increase,mouse stomach mRNA; old + Ent-01 vs old mice,747%
same,myozenin_1 mRNA % increase,mouse stomach mRNA; old + Ent-01 vs old mice,524%
same,myozenin_2 mRNA % increase,mouse stomach mRNA; old + Ent-01 vs old mice,341%
same,titin-cap mRNA % increase,mouse stomach mRNA; old + Ent-01 vs old mice,298%
same,mRNA levels for all of the genes in Table 4,mouse stomach mRNA; old mice after treatment with squalamine,significant increase
same,absorption in blood,[2],less than 0.3%
same,"Drug related adverse event Diarrhea, Mild, %",[3],(35) %
same,"Drug related adverse event Diarrhea, Moderate, %",[3],(5.8) %
same,"Drug related adverse event Diarrhea, Severe, %",[3],(2.9) %
same,"Drug related adverse event Dizziness, Mild, %",[3],(20.5) %
same,"Drug related adverse event Dizziness, Moderate, %",[3],(2.9) %
same,"Drug related adverse event Nausea, Mild, %",[3],(47) %
same,"Drug related adverse event Nausea, Moderate, %",[3],(2.9) %
same,"Drug related adverse event Vomiting, Mild, %",[3],(5.8) %
same,"Drug related adverse event Diarrhea, Mild, %",[4],(2.7) %
same,"Drug related adverse event Diarrhea, Moderate, %",[4],(2.7) %
same,"Drug related adverse event Diarrhea, Severe, %",[4],(2.7) %
same,"Drug related adverse event Dizziness, Mild, %",[4],(3) %
same,"Drug related adverse event Nausea, Mild, %",[4],(6.3) %
same,"Drug related adverse event Nausea, Moderate, %",[4],(2.7) %
same,"Drug related adverse event Vomiting, Mild, %",[4],(2.7) %
same,"Drug related adverse event Vomiting, Moderate, %",[4],(2.7) %
same,"Unrelated adverse event Contusion*, Mild, %",[4],(2.1) %
same,"Unrelated adverse event Dizziness, Mild, %",[4],(4.2) %
same,"Unrelated adverse event Fall*, Mild, %",[4],(4.2) %
same,"Unrelated adverse event Fall*, Moderate, %",[4],(2.1) %
same,"Unrelated adverse event Pain*, Mild, %",[4],(2.1) %
same,"Unrelated adverse event Pain*, Moderate, %",[4],(2.1) %
same,"Unrelated adverse event Phlebotomy site irritation*, Mild, %",[4],(2.1) %
same,"Unrelated adverse event Rectal burning, Mild, %",[4],(2.1) %
same,"Unrelated adverse event Rib fracture*, Mild, %",[4],(2.1) %
same,"Unrelated adverse event Squamous cell Ca*, Mild, %",[4],(2.1) %
same,"Unrelated adverse event Syncope*, Moderate, %",[4],(2.1) %
same,initiation of aggregation of the α-synuclein protein,α-synuclein protein,inhibit the initiation of aggregation
same,gastrointestinal motility,[5],stimulates gastrointestinal motility
same,gastrointestinal motility,[6],not associated with increased gastrointestinal motility
same,patients with MMSE improvement of 3 or more points,[7]; [8],33%
same,patients with MMSE improvement of 4 or more points,[7]; [8],20%
same,patients with MMSE improvement of 5 or more points,[7]; [8],13%
same,patients with MMSE improvement of 6 or more points,[7]; [8],1/15
same,patients responding to drug treatment (increase in CSBM),"[7]; 29 patients with assessable bowel movements, 75 or 150 mg/daily, 25 days",About 80%
same,hallucinations,"[7]; Phase 2(b), PD patients",reduction in hallucinations
same,sleep fragmentation,"[7]; Phase 2(b), PD patients",decrease in sleep fragmentation
same,total sleep time,"[7]; Phase 2(b), PD patients",increase in total sleep time
same,"bowel function, MMSE scores, amount and quality of sleep, other neurological indices (UPDRS)","[7]; dose taken sitting or standing, compared to lying down",qualitative improvements
same,"Unrelated adverse event Flu-like symptoms*, Mild, %",[7]; n = 47,(6.3) %
